# In publication PMC11650737, “Developing MYC Degraders Bearing the Von Hippel–Lindau Ligand to Target the “Undruggable” MYC” (ACS Pharmacology & Translational Science, 2024):
# Where “and” joins values, the source holds several entries; their conditions need not be identical. Equal values may be shown once. Entries after “also recorded” stand apart in the source; their conditions may differ.
# How the values were obtained:
# PC3 cells = assay: Cell uptake / intracellular concentration by LC-MS/MS, PC3; type: in vitro ADME, human; details: PC3, 24 h incubation with 10 μM
# Protocol: Therefore, in order to better comprehend the observed activities of our degraders, following incubation of each compound with cells, the intracellular concentrations of the synthesized derivatives were evaluated in different cancer cell lines, as described previously.[28],[29] SKBR3, PC3, or A549 cells were incubated with PROTACs (at a 10 μΜ concentration) for selected time points, respectively. Upon sample treatment, compounds were extracted and analyzed by LC-MS/MS. Table 1 presents the percentage of the molecule that enters the cells after 24 h incubation at the 10 μM concentration. […] The small molecule MYCi361, used as a binding domain component of MYC, was also evaluated in the cell uptake assay (Table 1).
# Cells were plated in 24-well plates at a density of 2 × 10^5 cells/well. 24 h after seeding, cells were incubated with each PROTAC (10 μΜ) for certain time points (1 h, 4 h, 8 h, and 24 h). The incubations were terminated at the selected time points by removing the medium and washing the cells twice with 1 mL cold PBS (1×) in each well in order to remove unbound PROTAC. Subsequently, the cells were lysed by adding a cold solution of ACN:H2O (3:2) and scraping off the cell monolayer. This process was done in two steps: first, 200 μL of ACN:H2O was added, the cells were scraped, and the cell lysate was collected. The second step involved the addition of an extra 100 μL of ACN:H2O, scraping, and collection of the remaining lysate. Samples were subsequently vortexed, sonicated, and centrifuged for 10 min at 13 000 rpm. The supernatants were collected, evaporated for 1 h at 55 °C, and stored at −20 °C until the day of analysis. Samples were then reconstituted in 200 μL of initial mobile phase (100% A), and the intracellular accumulation of PROTACs was determined by LC-MS/MS analysis using Warfarin as a stable internal standard and PROTAC standards for the construction of analytical standard curves.
# The percentage of cell uptake was calculated as follows: [drawing 1]
# [1] = target: T1, recombinant bHLH-MYC protein (Homo sapiens, UniProt P01106); assay: Direct binding to MYC by microscale thermophoresis (MST); details: compound 200 μM, labeled MYC 25 nM
# T1 construct: The recombinant bHLHZ-Myc protein carrying an aminoterminal His6-tag; made in house; host or cells: bacteria
# Protocol: To investigate the capacity of MYC degraders to directly bind to MYC, microscale thermophoresis (MST) experiments were performed using recombinant bHLH-MYC protein. MST is a very sensitive, recently developed method based on the shift of fluorescent molecules moving in a temperature gradient that can be perturbed by interactions with other molecules. In this binding assay, a His6-tagged bHLH-MYC protein was fluorescently labeled via its hexa-histidine tag and subjected to MST measurement in the absence and in the presence of MYC degraders. All compounds tested shifted MYC thermophoresis (Figure 4), as shown by normalized fluorescence values, a clear indication that they bound directly to MYC. MST experiments were also run under identical conditions using two reference Myc inhibitors as positive controls: the biphenyl pyrazole MYCi361 and a thiazolidinone derivative, 10058-F4. Both are well-characterized MYC binders: The first one has been used as a POI ligand for the PROTACs designed and synthesized in this work, and the latter is widely known to inhibit MYC by specifically disrupting the MYC–Max complex formation.
# Figure 4 Assay of direct binding to MYC by microscale thermophoresis (MST): MST of fluorescently labeled MYC (25 nM) mixed with several MYC degraders (200 μM) or the solvent alone (DMSO). MST of MYC binders 10058-F4 and MYCi361 used as positive controls. Data are shown as mean ± SEM.
# Microscale thermophoresis (MST) assay was used to determine whether PROTACs bind directly to MYC. The recombinant bHLHZ-Myc protein carrying an aminoterminal His6-tag was expressed in bacteria from a plasmid kindly provided by George Sianidis (BRFAA, Greece) and purified, as previously described,[33] with minor modifications. […] MST was measured using a Monolith NT.115Pico with a red filter at an ambient temperature of 25 °C. […] Results were analyzed using the software provided with the Monolith instrument. Data are reported as ΔFnorm, which results from subtracting the normalized fluorescence value (Fnorm) of MYC in the absence of PROTAC from Fnorm in excess of PROTAC (bound state).
# MYC:MAX complex = assay: In vitro MYC-MAX binding assay (GST pull-down); type: biochemical; details: compound 150 μM
# Protocol: To assess whether the new degraders affect direct interaction of MYC with MAX, we employed a pull-down approach using recombinant proteins that correspond to the bHLHZ regions of MYC and MAX. GST-MYC, bound to glutathione sepharose beads, was incubated with the pyrazole compounds, followed by incubation with His-MAX. Finally, the complex of GST-MYC/HisMAX was eluted by the addition of excess glutathione, while the amount of the eluted complex was assessed by western blotting using anti-MAX antibodies (Figure 5).
# Figure 5 Inhibition of the formation of the MYC:MAX complex by the pyrazole compounds. The indicated compounds (150 μM), or the solvent alone (DMSO, used as a control), were incubated with GST-MYC containing glutathione beads for 10 min at […], followed by incubation with His-MAX. […] The complex of GST-MYC:His-MAX was eluted by incubation of the beads with free glutathione. The amount of the eluted complex was analyzed by western blotting (presented in the inset), using anti-MAX antibodies, while the protein bands were quantified with the ImageJ software. The intensity of the bands is presented in the bar graph. […] Statistics were based on the unpaired two-tailed student’s t-test. Data are shown as mean ± SEM.
# MYC–MAX complex formation assays were performed using recombinantly produced GST-MYC and His-MAX proteins, following the glutathione GST pull-down principle (Lentzaris et al., in preparation). In this assay, recombinant GST-MYC bound to glutathione beads was preincubated with the indicated compound or vehicle […]. As a negative control, empty beads, i.e., not loaded with GST-MYC, were used. The formed complex was eluted with glutathione, while the amount of bound MAX (indicating the amount of the generated complex) was assessed by Western blotting using anti-MAX antibodies (Abcam) and quantified based on the image J free software. All assays were carried out at least three independent times.
# T1 sequence (P01106 368-452 limits assumed): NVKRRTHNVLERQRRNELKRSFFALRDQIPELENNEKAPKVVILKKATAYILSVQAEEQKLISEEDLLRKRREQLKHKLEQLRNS
Uptake by cells (PC3 cells),direct binding to MYC (shift of MYC thermophoresis) [1],Structure (SMILES),inhibition of MYC:MAX complex formation (binding of His-MAX to GST-MYC) (MYC:MAX complex)
19% and 19 ± 4%,equally potent,Cc1ncsc1-c1ccc(CNC(=O)[C@@H]2C[C@@H](O)CN2C(=O)[C@@H](NC(=O)CCC(=O)NCCCOc2ccc(-c3cc(C(F)(F)F)nn3C)c(O)c2-c2cc(C(F)(F)F)cc(C(F)(F)F)c2)C(C)(C)C)cc1 [CSI86],no effect on MYC/MAX dimerization
13% and 13 ± 3%,equally potent,Cc1ncsc1-c1ccc(CNC(=O)[C@@H]2C[C@@H](O)CN2C(=O)[C@@H](NC(=O)CCCC(=O)NCCCOc2ccc(-c3cc(C(F)(F)F)nn3C)c(O)c2-c2cc(C(F)(F)F)cc(C(F)(F)F)c2)C(C)(C)C)cc1 [CSI107],inhibited the binding of HisMAX to MYC; also recorded: inhibits dimerization
–,equally potent,Cc1ncsc1-c1ccc(CNC(=O)[C@@H]2C[C@@H](O)CN2C(=O)[C@@H](NC(=O)COCCOCC(=O)NCCCOc2ccc(-c3cc(C(F)(F)F)nn3C)c(O)c2-c2cc(C(F)(F)F)cc(C(F)(F)F)c2)C(C)(C)C)cc1 [CSI135],–
